According to patent US20050054629A1, “Compounds and methods of treating cell proliferative diseases” (priority 2002, published 2005):
pIC50: −log10 of the molar value. Read-outs that look alike come from different tables or passages of the source.

Experiments:
H460 lung carcinoma = experiment: Cytotoxicity assay (MTT), 6 days; format: cell-based; details: Homo sapiens, NCI-H460, 144 h, 6 days of treatment, read-out: Toxicity 6d (IC 50, μM) H460
Procedure, shortened: (§1)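 Compound was added 24 h after seeding at six concentrations from 0 to 50 μM. Six days later, viability was assessed by MTT reduction and absorbance at 550 nm, giving IC50 values from triplicate assays.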

[1] = system: MDA-MB-231 breast carcinoma; experiment: Cytotoxicity assay (MTT), 6 days; format: cell-based; details: Homo sapiens, MDA-MB-231, 144 h, 6 days of treatment, read-out: Toxicity 6d (IC 50, μM) MDA231
Procedure, shortened: as §1

[2] = system: HCT116 colon adenocarcinoma; experiment: Cytotoxicity assay (MTT), 6 days; format: cell-based, human; details: 6 days of treatment, read-out: Toxicity 6d (IC 50, μM) HCT116
Procedure, shortened: as §1

HCT116 cells = experiment: Anchorage-independent growth assay (soft agar / Matrigel); format: cell-based, human; details: for effect on anchorage-independent growth: HCT116; for pIC50: Homo sapiens, HCT-116, 168 h, HCT116, 3-dimensional growth, 1 week
Protocol: In order to evaluate the effect of the compounds on the capacity of tumor cells to grow without anchorage, HCT116 cells were seeded either in agar or in Matrigel (BD, France). For 3D growth experiment in soft agar in 24-well plates, 5.10^3 HCT116 cells were resuspended in 250 μl of complete medium containing 0.3% soft-agar (Difco) and different concentrations of compound (0.1, 1, 10, 17.5, 25 and 50 μM). Cells were then poured on a solidified layer of medium containing 0.5% of soft-agar plus the compound at the same concentration than in the upper layer. Cells were incubated at 37° C. for 1 week before they were analysed using a phase contrast microscope (Nikon). For 3D growth experiment in Matrigel, 10^4 HCT116 cells were resuspended in 300 μl of complete medium containing 5 mg/ml Matrigel (BD, France) and different concentrations of compound (0.1, 1, 10, 17.5, 25 and 50 μM), and poured in 24-well plates. After solidification at 37° C. for 15 min., complete medium containing the compound was added to each well. Cells were incubated for 1 week before they were collected using Matrisperse (BD, France) according to the manufacturer's instructions. After recovery, alive cells were counted with trypan blue exclusion.

MDA-MB-231 cells = experiment: Matrigel invasion assay (Boyden chamber); format: cell-based, human; details: for Invasion: MDA-MB-231, Boyden chamber, matrigel
Procedure, shortened: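 MDA-MB-231 cells were pretreated overnight with compound (1, 10, 17.5, 25, 50 μM). 10^5 cells in serum-free 0.1% BSA medium with compound were placed on 8 μm membranes coated with Matrigel (125 μg/cm^2), with 10% FBS plus compound below. After 6 h at 37 °C, cells on the filter underside were Diff-Quick stained and counted.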

Ras = experiment: Ras-dependant signaling pathway analysis (reporter system); format: cell-based; parameters: key: −: no effect of the compound was observed; +: an effect of the compound was observed
Procedure, shortened: (§2)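 Ras and Rac signalling were measured with reporter systems. For colony formation, NIH3T3 cells were transfected with RasV12 or RacV12 plus neomycin plasmids, then grown 2-3 weeks in 400 μg/ml geneticin with compound at 1, 10, 17.5, 25 or 50 μM. Fuchsin-stained colonies of ≥50 cells were counted.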

Rac = experiment: Rac-dependant signaling pathway analysis (reporter system); format: cell-based; parameters: key: −: no effect of the compound was observed; +: an effect of the compound was observed
Protocol: The impact of the compounds on Ras and Rac signaling pathways was analysed with two reporter systems described by Imler (Nature 1988) and Lin (Science, 1995) respectively on one hand, and by a colony formation assay in the presence of constitutively activated Ras (RasV12) and Rac (RacV12) on the other hand. For this latter experiment, fifty percent confluent NIH3T3 cells in a 10 cm diameter petri dish were transfected with 0.5 μg pSV2-RasV12 or 0.5 μg pEXV RacV12 plasmids plus 100 ng of pSV2-neomycin plasmid using Lipofectamine-Plus reagent (Invitrogen) according to the manufacturer's instructions. Forty-eight hours later, cells were trypsinised, splitted to ⅓, and incubated in the presence of complete medium supplemented with 400 μg/ml geneticin (Invitrogen) and different doses of compound (1, 10, 17.5, 25 and 50 μM) until emerging resistant clones appear (2-3 weeks). The medium was renewed every 3 days. Colonies with a minimum of 50 cells were counted after staining with Fuschin 2%.

NIH3T3 cells = experiment: Colony formation assay with constitutively activated Ras (RasV12) and Rac (RacV12); format: cell-based, mouse; parameters: key to Colony formation: −: no effect of the compound was observed; +: an effect of the compound was observed
Procedure, shortened: as §2

cell architecture = experiment: Cell architecture modification, phase contrast; format: cell-based; parameters: key: −: no effect of the compound was observed; +: an effect of the compound was observed
NIH3T3 = experiment: Cytoskeleton analysis, actin staining (FITC-phalloidin); format: cell-based, mouse; details: for Cell architecture modification actin staining (R: ruffles; FC: focal complexes) NIH3T3: 24 h treatment; for concentration at which specific inhibition of membrane ruffles and increase in the number of stress fibers was observed: NIH3T3, actin staining
Procedure, shortened: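 Subconfluent cells on coverslips were exposed to compound at 1, 10, 17.5, 25 or 50 μM, or to vehicle, for 24 h. They were then formaldehyde-fixed, Triton-permeabilized and blocked. Actin was stained with 0.5 μg/ml FITC-phalloidin for 1 h and imaged by inverted fluorescence microscopy.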

SMILES	IC50 (H460 lung carcinoma)	IC50 [1]	IC50 [2]	IC50 ([2]; Homo sapiens, HCT-116, 144 h)	effect on anchorage-independent growth (HCT116 cells)	pIC50 (HCT116 cells)	concentration giving significant inhibition of invasive properties of MDA-MB-231 cells (MDA-MB-231 cells)	Invasion (MDA-MB-231 cells)	Small GTPases activities Ras (Ras)	Small GTPases activities Rac (Rac)	Colony formation (NIH3T3 cells)	Ras-dependent neoR clones formation (NIH3T3 cells; NIH3T3 transfected with RasVal12)	Cell architecture modification phase contrast (cell architecture)	Cell architecture modification actin staining (R: ruffles; FC: focal complexes) NIH3T3 (NIH3T3)	concentration at which specific inhibition of membrane ruffles and increase in the number of stress fibers was observed (NIH3T3)	concentration giving an increase in invasive properties of MDA-MB-231 cells (MDA-MB-231 cells)
CCCc1c(OCCCCCOc2coc(CO)cc2=O)ccc(Cl)c1Cl [EH22900, 5-[5-(3,4-Dichloro-2-propylphenyloxy)pentyloxy]-2-(hydroxymethyl)-4H-pyran-4-one]	15 µM	30 µM	10 µM	≤ 15 µM	strongest effect	> 6.00	17.5 µM	Decrease	−	−	+	inhibited	+	R-, FC+	10 µM	
C/C=C/c1oc(CO)cc(=O)c1OCCCCCOc1ccc(Cl)c(Cl)c1CCC [EH31101, (E)-3-[5-(3,4-Dichloro-2-propylphenyloxy)pentyloxy]-6-(hydroxymethyl)-2-(propen-1-yl)-4H-pyran-4-one]	25 µM	25 µM		30 µM	significant, although less severe, effect	> 6.00		Increase	−	−	−		+	R-, FC+	50 µM	10 µM
